Read-outs that look alike come from different tables or passages of the source.
How the values were obtained:
Assay type in all cases: in vivo
Sphaerotheca fuliginea = experiment: Sphaerotheca test (cucumbers)/protective; details: Table C; for pest or weed control at 5 ppm: 5 ppm a.i.
Experimental: (§1) Solvent: 24.5 parts by weight of acetone
(§2) • 24.5 parts by weight of dimethylacetamide Emulsifier: 1 part by weight of alkylaryl polyglycol ether
To produce a suitable preparation of active compound, 1 part by weight of active compound is mixed with the stated amounts of solvent and emulsifier, and the concentrate is diluted with water to the desired concentration. To test for protect activity, young plants are sprayed with the preparation of active compound at the stated rate of application. After the spray coating has dried on, the plants are inoculated with an aqueous spore suspension of Sphaerotheca fuliginea. The plants are then placed in a greenhouse at approximately 23° C. and a relative atmospheric humidity of approximately 70%. The test is evaluated 7 days after the inoculation. 0% means an efficacy which corresponds to that of the control, while an efficacy of 100% means that no disease is observed.

Botrytis cinerea = experiment: Botrytis test (beans)/protective; details: Table F
Experimental: as §1, §2
To produce a suitable preparation of active compound, 1 part by weight of active compound is mixed with the stated amounts of solvent and emulsifier, and the concentrate is diluted with water to the desired concentration. To test for protective activity, young plants are sprayed with the preparation of active compound. After the spray coating has dried on, 2 small pieces of agar covered with growth of Botrytis cinerea are placed on each leaf. The inoculated plants are placed in a darkened chamber at 20° C. and a relative atmospheric humidity of 100%. 2 days after the inoculation, the size of the lesions on the leaves is evaluated. 0% means an efficacy which corresponds to that of the control, while an efficacy of 100% means that no disease is observed.

Alternaria solani = experiment: Alternaria test (tomatoes)/protective; details: Table E; for pest or weed control at 12.5 ppm: 12.5 ppm a.i.
Experimental: as §1, §2
(§3) To produce a suitable preparation of active compound, 1 part by weight of active compound is mixed with the stated amounts of solvent and emulsifier, and the concentrate is diluted with water to the desired concentration. To test for protective activity, young plants are sprayed with the preparation of active compound at the stated rate of application. After the spray coating has dried on, the plants are inoculated with an aqueous spore suspension of Alternaria solani. The plants are then placed in an incubation cabinet at approximately 20° C. and a relative atmospheric humidity of 100%. The test is evaluated 3 days after the inoculation. 0% means an efficacy which corresponds to that of the control while an efficacy of 100% means that no disease is observed.

Venturia inaequalis = experiment: Venturia test (apples)/protective; details: Table D, test 1
Experimental: as §1, §2
as §3, with “conidia” for “spore”, “the causal agent of apple scab (Venturia inaequalis) and” for “Alternaria solani. The plants are”, “remain for 1 day” for “placed”, “The plants are then placed in a greenhouse at approximately 21° C. and a relative atmospheric humidity of approximately 90%. The” for “The”, “10” for “3”, “control,” for “control”

Phytophthora infestans = experiment: whole plant or invertebrate; details: for Efficacy in % found: Table A
[1] = Botrytis cinerea, 48 h, test 1, 25 ppm a.i., read-out: Efficacy in % found
[2] = Podosphaera fuliginea, 168 h, test 4, read-out: Efficacy in % found
[3] = Alternaria solani, 72 h, test 1, read-out: Efficacy in % found
[4] = Botrytis cinerea, 48 h, test 2, 50 ppm a.i., read-out: Efficacy in % found

Fc1ccc([C@]2(Cn3cncn3)O[C@H]2c2ccccc2Cl)cc1 (racemic) [(1.12), epoxiconazole]
pest or weed control at 0.5 ppm (Sphaerotheca fuliginea; Podosphaera fuliginea, 168 h, test 1, 0.5 ppm a.i., read-out: Efficacy in % found): 30%
pest or weed control at 25 ppm (Botrytis cinerea; [1]): 49%

CC(C)(C)C(O)C(Oc1ccc(-c2ccccc2)cc1)n1cncn1 (centres unmarked) [(1.3), bitertanol]
pest or weed control at 5 ppm (Sphaerotheca fuliginea; [2]): 71%

CC(C1CC1)C(O)(Cn1cncn1)c1ccc(Cl)cc1 (centres unmarked) [(1.5), cyproconazole]
pest or weed control at 0.5 ppm (Alternaria solani; Alternaria solani, 72 h, test 2, 0.5 ppm a.i., read-out: Efficacy in % found): 0%

CC1COC(Cn2cncn2)(c2ccc(Oc3ccc(Cl)cc3)cc2Cl)O1 (centres unmarked) [(1.7), difenoconazole]
pest or weed control at 5 ppm (Sphaerotheca fuliginea; [2]): 38%

CC1(C(=O)Nc2ccc(O)c(Cl)c2Cl)CCCCC1 [(1.16), fenhexamid]
pest or weed control at 12.5 ppm (Alternaria solani; [3]): 0%
Efficacy in % found (Venturia inaequalis; 12.5 ppm a.i.): 0%

CCCN(CC)CC1COC2(CCC(C(C)(C)C)CC2)O1 (centres unmarked) [(1.46), spiroxamine]
pest or weed control at 100 ppm (Sphaerotheca fuliginea; Podosphaera fuliginea, 168 h, test 3, 100 ppm a.i., read-out: Efficacy in % found): 10%

CC(C)(C)C(=O)C(Oc1ccc(Cl)cc1)n1cncn1 (centres unmarked) [(1.50), triadimefon]
pest or weed control at 5 ppm (Sphaerotheca fuliginea; [2]): 19%

Cn1cc(C(=O)Nc2ccccc2-c2ccccc2C(F)(F)F)c(C(F)(F)F)n1 [(2.26), 1-methyl-3-(trifluoromethyl)-N-[2′-(trifluoromethyl)biphenyl-2-yl]-1H-pyrazole-4-carboxamide]
Efficacy in % found (Venturia inaequalis; 1 ppm a.i.): 54%
pest or weed control at 25 ppm (Botrytis cinerea; [1]): 89%

CO/C=C(/C(=O)OC)c1ccccc1Oc1cc(Oc2ccccc2C#N)ncn1 [(3.2), azoxystrobin]
Efficacy in % found (Alternaria solani; test 1, 0.5 ppm a.i.): 40%
Efficacy in % found (Phytophthora infestans; test 1, 1 ppm a.i.): 23%
Efficacy in % found (Botrytis cinerea; test 1, 25 ppm a.i.): 0%

CSC1=N[C@@](C)(c2ccccc2)C(=O)N1Nc1ccccc1 [(3.7), fenamidone]
pest or weed control at 1 ppm (Phytophthora infestans; Phytophthora infestans, 72 h, read-out: Efficacy in % found, Table A, test 1, 1 ppm a.i.): 62%

CCCCNC(=O)n1c(NC(=O)OC)nc2ccccc21 [(4.1), benomyl]
pest or weed control at 2.5 ppm (Botrytis cinerea; Botrytis cinerea, 48 h, test 3, 2.5 ppm a.i., read-out: Efficacy in % found): 8%

CCOc1ccc(NC(=O)OC(C)C)cc1OCC [(4.3), diethofencarb]
pest or weed control at 50 ppm (Botrytis cinerea; Botrytis cinerea, 48 h, test 3, 50 ppm a.i., read-out: Efficacy in % found): 29%

O=C(Nc1ccccc1)N(Cc1ccc(Cl)cc1)C1CCCC1 [(4.6), pencycuron]
pest or weed control at 50 ppm (Botrytis cinerea; [4]): 0%

COC(=O)NC(=S)Nc1ccccc1NC(=S)NC(=O)OC [(4.8), thiophanate-methyl]
pest or weed control at 250 ppm (Phytophthora infestans; Phytophthora infestans, 72 h, read-out: Efficacy in % found, Table A, test 6, 250 ppm a.i.): 29%
pest or weed control at 12.5 ppm (Botrytis cinerea; Botrytis cinerea, 48 h, test 3, 12.5 ppm a.i., read-out: Efficacy in % found): 84%

O=C1C2CC=CCC2C(=O)N1SC(Cl)(Cl)Cl (centres unmarked) [(5.3), captan]
pest or weed control at 50 ppm (Phytophthora infestans; Phytophthora infestans, 72 h, read-out: Efficacy in % found, Table A, test 6, 50 ppm a.i.): 60%

N#Cc1c(Cl)c(Cl)c(Cl)c(C#N)c1Cl [(5.4), chlorothalonil]
pest or weed control at 2.5 ppm (Phytophthora infestans; Phytophthora infestans, 72 h, read-out: Efficacy in % found, Table A, test 5, 2.5 ppm a.i.): 50%

N#Cc1sc2c(=O)c3ccccc3c(=O)c=2sc1C#N [(5.6), dithianon]
pest or weed control at 25 ppm (Phytophthora infestans; Phytophthora infestans, 72 h, read-out: Efficacy in % found, Table A, test 6, 25 ppm a.i.): 54%

O=C1c2ccccc2C(=O)N1SC(Cl)(Cl)Cl [(5.9), folpet]
pest or weed control at 50 ppm (Phytophthora infestans; Phytophthora infestans, 72 h, read-out: Efficacy in % found, Table A, test 3, 50 ppm a.i.): 32%

[Cu+2].[OH-].[OH-] [(5.16), copper hydroxide]
Efficacy in % found (Phytophthora infestans; test 6, 25 ppm a.i.): 43%

Cc1cc(C)nc(Nc2ccccc2)n1 [(7.7), pyrimethanil]
pest or weed control at 50 ppm (Botrytis cinerea; [4]): 0%

CC(C)[C@H](NC(=O)O)C(=O)N[C@H](C)c1nc2ccc(F)cc2s1 [(9.1), benthiavalicarb]
Efficacy in % found (Phytophthora infestans; test 1, 0.25 ppm a.i.): 12%

COc1ccc(C(=CC(=O)N2CCOCC2)c2ccc(Cl)cc2)cc1OC [(9.2), dimethomorph]
pest or weed control at 0.5 ppm (Phytophthora infestans; Phytophthora infestans, 72 h, read-out: Efficacy in % found, Table A, test 2, 0.5 ppm a.i.): 28%

Cc1ccc(C(C)NC(=O)[C@@H](NC(=O)OC(C)C)C(C)C)cc1 (some centres unmarked) [(9.4), iprovalicarb]
Efficacy in % found (Phytophthora infestans; test 7, 1.25 ppm a.i.): 42%

COC(=O)CC(NC(=O)[C@@H](NC(=O)OC(C)C)C(C)C)c1ccc(Cl)cc1 (some centres unmarked) [(9.10), valifenalate]
Efficacy in % found (Phytophthora infestans; test 2, 0.5 ppm a.i.): 58%

CC(C)NC(=O)N1CC(=O)N(c2cc(Cl)cc(Cl)c2)C1=O [(10.7), iprodione]
pest or weed control at 12.5 ppm (Alternaria solani; [3]): 35%
pest or weed control at 25 ppm (Botrytis cinerea; [1]): 0%

COC(=O)C(C)N(C(=O)Cc1ccccc1)c1c(C)cccc1C (centres unmarked) [(12.1), benalaxyl]
pest or weed control at 1 ppm (Phytophthora infestans; Phytophthora infestans, 72 h, read-out: Efficacy in % found, Table A, test 4, 1 ppm a.i.): 26%

COC(=O)[C@@H](C)N(C(=O)Cc1ccccc1)c1c(C)cccc1C [(12.2), benalaxyl-M (kiralaxyl)]
Efficacy in % found (Phytophthora infestans; test 4, 1 ppm a.i.): 19%

N#Cc1c[nH]cc1-c1cccc(Cl)c1Cl [(13.1), fenpiclonil]
pest or weed control at 10 ppm (Botrytis cinerea; Botrytis cinerea, 48 h, test 2, 10 ppm a.i., read-out: Efficacy in % found): 0%

N#Cc1c[nH]cc1-c1cccc2c1OC(F)(F)O2 [(13.2), fludioxonil]
pest or weed control at 5 ppm (Botrytis cinerea; Botrytis cinerea, 48 h, test 2, 5 ppm a.i., read-out: Efficacy in % found): 84%

Fc1ccc(Oc2ccnc3cc(Cl)cc(Cl)c23)cc1 [(13.3), quinoxyfen]
pest or weed control at 5 ppm (Sphaerotheca fuliginea; Podosphaera fuliginea, 168 h, test 3, read-out: Efficacy in % found): 37%

CCCCCCCCc1c(CC)nc2ncnn2c1N [(15.1), ametoctradin]
Efficacy in % found (Phytophthora infestans; test 2, 2.5 ppm a.i.): 73%

O=C(NCc1ncc(C(F)(F)F)cc1Cl)c1c(Cl)cccc1Cl [(15.17), fluopicolide]
Efficacy in % found (Phytophthora infestans; test 1, 1 ppm a.i.): 0%

CCO[PH](=O)O [(15.20), fosetyl-Al]
Efficacy in % found (Phytophthora infestans; test 7, 62.5 ppm a.i.): 53%

N#Cc1ccccc1NC(=O)c1snc(Cl)c1Cl [(15.22), isotianil]
Efficacy in % found (Botrytis cinerea; test 2, 50 ppm a.i.): 0%

COc1cc(C)c(C(=O)c2c(OC)ccc(Br)c2C)c(OC)c1OC [(15.25), metrafenone]
pest or weed control at 10 ppm (Sphaerotheca fuliginea; Podosphaera fuliginea, 168 h, test 2, 10 ppm a.i., read-out: Efficacy in % found): 21%

COc1ccccc1N1CCS/C1=C(/C#N)Sc1cc(C(F)(F)F)ccc1F [(15.57), flutianil]
Efficacy in % found (Sphaerotheca fuliginea; test 2, 0.5 ppm a.i.): 48%

CCCCCOC(=O)Nc1cccc(CON=C(c2ccccc2)c2nnnn2C)n1 [(15.66), pentyl {6-[({[(1-methyl-1H-tetrazol-5-yl)(phenyl)methylidene]amino}oxy)-methyl]pyridin-2-yl}carbamate]
pest or weed control at 0.5 ppm (Phytophthora infestans; Phytophthora infestans, 72 h, read-out: Efficacy in % found, Table A, test 5, 0.5 ppm a.i.): 30%

Cc1cc(C(F)(F)F)nn1CC(=O)N1CCC(c2nc(C3=NO[C@@H](c4c(F)cccc4F)C3)cs2)CC1 [(15.88), 1-(4-{4-[(5R)-5-(2,6-difluorophenyl)-4,5-dihydro-1,2-oxazol-3-yl]-1,3-thiazol-2-yl}piperidin-1-yl)-2-[5-methyl-3-(trifluoromethyl)-1H-pyrazol-1-yl]ethanone]
pest or weed control at 0.025 ppm (Phytophthora infestans; Phytophthora infestans, 72 h, read-out: Efficacy in % found, Table A, test 5, 0.025 ppm a.i.): 50%

mancozeb [(5.19)]
Efficacy in % found (Phytophthora infestans; test 3, 50 ppm a.i.): 53%

metalaxyl-M (mefenoxam) [(12.10)]
Efficacy in % found (Phytophthora infestans; test 7, 1.25 ppm a.i.): 13%

metiram [(5.21)]
Efficacy in % found (Phytophthora infestans; test 3, 50 ppm a.i.): 17%

phosphorous acid and its salts [(15.62)]
Efficacy in % found (Phytophthora infestans; test 6, 500 ppm a.i.): 54%

propineb [(5.23)]
Efficacy in % found (Phytophthora infestans; test 6, 50 ppm a.i.): 26%

Source: US9006139B2, “Active compound combinations” (Bayer Intellectual Property GmbH, priority 2009, dated 2015)
